Assays:
[1] = tested on: G protein coupled receptor 119 (GPR 119); assay: Real-time PCR gene expression in peripheral tissues: GPR119; format: in vivo; conditions: proximal intestine; C57bl6j mice, high fat diet, 100 mg/kg/body weight in diet, 5 weeks
Protocol: (§1) The expression of 45 genes was measured by real-time PCR in peripheral tissues to identify genes that were differentially expressed in response to oral administration of oleoylethanolamide (OEA) or a non-hydrolysable OEA analog (KDS 5104), which affect satiety, lipid metabolism, fat utilization, food intake, and body fat mass.
(§2) Animals, diet, and experimental design. Adult male C57bl6j mice purchased at 8 weeks of age were individually housed and maintained ad libitum on high fat diet and water for 2 weeks. Seven mice were randomly allocated in 3 groups and fed with a high fat diet (lipids represented 50% of daily energy) for 2 weeks. […]
(§3) RNA extraction and gene expression. […] The RNA concentration was determined on nanodrop from the absorbance at 260 nm. […] Real-time quantitative PCR (RT-qPCR) were performed on cDNA obtained as described above using a high through put system (Biomek 3000, Beckman & Coulter, Fullerton, USA) and a Lightcycler 480 (Roche/Hitachi, Basel, Switzerland) with SYBR Green Master mix+kit (Eurogentec, Philadelphia, USA). […] Values were expressed as ratio of RNA levels relative to control mice (diets with 0 mg of OEA/kg/body weight) using ΔΔ(Ct) (Livak K J & Schmittgen T D, 2001, Methods 25:402-8). Gene expression of the following genes was measured (abbreviation and GenBank Accession shown in parentheses). […]

CPT1 = assay: Real-time PCR gene expression in peripheral tissues: CPT1; format: in vivo; conditions: C57bl6j mice, high fat diet, 100 mg/kg/body weight in diet, 5 weeks
Protocol: as §1
(§4) Animals, diet, and experimental design. Adult male C57bl6j mice purchased at 8 weeks of age were individually housed and maintained ad libitum on high fat diet and water for 2 weeks. Seven mice were randomly allocated in 3 groups and fed with a high fat diet (lipids represented 50% of daily energy) for 2 weeks. For one kilogram, the composition of the high fat diet was: 235 g casein, 201 g saccharose, 3.5 g L-cystine, 85 g starch, 116 g maltodextrin, 60 g cellulose, 12 g vitamins mix (AIN-93M, UPAE, Jouy-en-Josas, France), 51.5 g mineral mix (AIN-93Vx, UPAE, Jouy-en-Josas, France), and 236 g lard. Then, either OEA or KDS 5104 was added to the diet at a concentration of 100 mg/kg/body weight. The mice were kept under treatment for 5 weeks.
(§5) Sampling. At the end of the experimental period, mice were sacrificed by blood drawing (cardiac puncture) after anesthesia with isoflurane. Plasma was obtained by centrifugation (1,000 g for 10 min at 4° C.). Mesenteric, epididymal, inguinal and peritoneal adipose depots, as well as liver, stomach, small intestine mucosa, pancreas, and gastrocnemian muscle were removed and frozen into liquid nitrogen. Plasma, urine, feces, and organ samples were kept at −80° C. until analysis.
(§6) RNA extraction and gene expression. Total RNA from liver, intestine mucous membrane, adipose tissues, gastrocnemian muscle, pancreas and stomach were extracted with TRIzol reagent (Invitrogen, Carlsbad, USA) according to the manufacturer's instruction. The RNA concentration was determined on nanodrop from the absorbance at 260 nm. Retro-transcription PCRs to synthesize cDNA were performed using an Applied Biosystem Thermal Cycler 2720 and Superscript II (Invitrogen, Carlsbad, USA) according to manufacturer's protocol. Real-time quantitative PCR (RT-qPCR) were performed on cDNA obtained as described above using a high through put system (Biomek 3000, Beckman & Coulter, Fullerton, USA) and a Lightcycler 480 (Roche/Hitachi, Basel, Switzerland) with SYBR Green Master mix+kit (Eurogentec, Philadelphia, USA). Primers for the selected genes were generated using online informatics assistance from the Lightcycler manufacturer (Roche). Databases used to identify the genes were (1) the NCBI database (GenBank) and (2) the IHOP (Information Hyperlinked over Protein) database (www.ihop-net.org/UniPub/iHOP/bng/). Values were expressed as ratio of RNA levels relative to control mice (diets with 0 mg of OEA/kg/body weight) using ΔΔ(Ct) (Livak K J & Schmittgen T D, 2001, Methods 25:402-8). Gene expression of the following genes was measured (abbreviation and GenBank Accession shown in parentheses).
(§7) Statistical analysis. […] Statistical analysis of physiological parameters and gene expression data was performed by one-way ANOVA on Statview software (SAS Institute, Cary, USA). Daily food intake was analyzed using two-way ANOVA on Statview software. Statistical significance was set up at the P<0.05 level, the P<0.01 level and the P<0.001 level. For statistical analysis of the gene expression data, values were calculated relative to 18S expression for each mouse and gene.

[2] = tested on: Protein convertase subtilisin/kexin type 9 (PCSK 9); assay: Real-time PCR gene expression in peripheral tissues: PCSK9; format: in vivo; conditions: liver; C57bl6j mice, high fat diet, 100 mg/kg/body weight in diet, 5 weeks
Protocol: as §1, §2, §3

[3] = cited from earlier work
[4] = tested on: Fatty Acid Synthase (FAS 1); assay: Real-time PCR gene expression in peripheral tissues: FAS; format: in vivo; conditions: liver; C57bl6j mice, high fat diet, 100 mg/kg/body weight in diet, 5 weeks
Protocol: as §1, §2, §3

[5] = tested on: Uncoupling protein 2 (UCP2); assay: Real-time PCR gene expression in peripheral tissues: UCP2; format: in vivo; conditions: muscle; C57bl6j mice, high fat diet, 100 mg/kg/body weight in diet, 5 weeks
Protocol: as §1, §2, §3

[6] = tested on: Sterol regulatory element binding protein-c 1 (SREBP 1c); assay: Real-time PCR gene expression in peripheral tissues: SREBP1c; format: in vivo; conditions: C57bl6j mice, high fat diet, 100 mg/kg/body weight in diet, 5 weeks
Protocol: as §1, §4, §5, §6, §7

[7] = tested on: Cannabinoid receptor 1 (CB 1); assay: Real-time PCR gene expression in peripheral tissues: CB1; format: in vivo; conditions: C57bl6j mice, high fat diet, 100 mg/kg/body weight in diet, 5 weeks
Protocol: as §1, §4, §5, §6, §7

[8] = tested on: Glucose transporter 4 (Glut 4); assay: Real-time PCR gene expression in peripheral tissues: Glut 4; format: in vivo; conditions: muscle; C57bl6j mice, high fat diet, 100 mg/kg/body weight in diet, 5 weeks
Protocol: as §1, §2, §3

[9] = tested on: Stearoyl-Coenzyme A desaturase 1 (SCD 1); assay: Real-time PCR gene expression in peripheral tissues: SCD1; format: in vivo; conditions: C57bl6j mice, high fat diet, 100 mg/kg/body weight in diet, 5 weeks
Protocol: as §1, §4, §5, §6, §7

[10] = rodents, intraperitoneal administration

SMILES: CCCCCCCC/C=C\CCCCCCCC(=O)NCCO [OEA, N-oleoyl-ethanolamide]
- GPR119 i, ratio of RNA levels relative to control mice [1]: 1.97
- CPT1 l, ratio of RNA levels relative to control mice (CPT1; liver): 1.74
- CPT1 p, ratio of RNA levels relative to control mice (CPT1; pancreas): 1.35
- CPT1 i, ratio of RNA levels relative to control mice (CPT1; proximal intestine): 2.00
- PCSK9 l, ratio of RNA levels relative to control mice [2]: 1.44
- food intake (meal size, first meal delay, meal intervals) ([3]; administrated intraperitoneally): reduced food intake
- body fat gain [3, 10]: reduced body fat gain
- satiety and lipid utilization [3, 10]: induce satiety and peripheral utilization of lipid substrate
- FAS l, ratio of RNA levels relative to control mice [4]: 1.65
- UCP2 m, ratio of RNA levels relative to control mice [5]: 1.19
- SREBP1c at ep, ratio of RNA levels relative to control mice ([6]; epidydimal adipose tissue): 1.08
- SREBP1c l, ratio of RNA levels relative to control mice ([6]; liver): 1.24
- SREBP1c at per, ratio of RNA levels relative to control mice ([6]; peritoneal adipose tissue): −1.39
- CB1 at ep, ratio of RNA levels relative to control mice ([7]; epidydimal adipose tissue): −1.94
- CB1 at per, ratio of RNA levels relative to control mice ([7]; peritoneal adipose tissue): −5.27
- CB1 i, ratio of RNA levels relative to control mice ([7]; proximal intestine): −1.02
- Glut 4 m, ratio of RNA levels relative to control mice [8]: 3.27
- SCD 1 at ep, ratio of RNA levels relative to control mice ([9]; epidydimal adipose tissue): 1.00
- SCD1 l, ratio of RNA levels relative to control mice ([9]; liver): −2.13
- SCD 1 at per, ratio of RNA levels relative to control mice ([9]; peritoneal adipose tissue): −1.30
